# Numbers after ± are expanded uncertainties.
# Experiments:
# [1] = Liquid; for viscosity: Cone and plate viscometry; for mass density: Vibrating tube method; for vapor or sublimation pressure: Ebulliometric method (Recirculating still)
# [2] = xn = mol fraction of the nth substance listed; settings: 100 kPa, Liquid, x2 = 0; for viscosity: Cone and plate viscometry; for mass density: Vibrating tube method
smiles,measurement,setting,value
CC(C)CO [2-methyl-1-propanol],viscosity,"[1]; 293.15 K, 101 kPa",4.315 ± 0.14 mPa·s
same,mass density,"[1]; 293.15 K, 101 kPa",801.75 ± 0.24 kg/m3
same,vapor or sublimation pressure,[1]; 296.87 K,1.391 ± 0.7 kPa
same,mass density,"[1]; 298.15 K, 101.33 kPa",797.83 ± 0.62 kg/m3
same,vapor or sublimation pressure,[1]; 298.77 K,1.593 ± 0.7 kPa
same,vapor or sublimation pressure,[1]; 300.53 K,1.796 ± 0.7 kPa
same,vapor or sublimation pressure,[1]; 302.12 K,1.995 ± 0.7 kPa
same,vapor or sublimation pressure,[1]; 302.29 K,2 ± 0.7 kPa
same,vapor or sublimation pressure,[1]; 302.3 K,2 ± 0.7 kPa
same,viscosity,"[1]; 303.15 K, 101 kPa",3.089 ± 0.14 mPa·s
same,mass density,"[1]; 303.15 K, 101 kPa",794.16 ± 0.24 kg/m3
same,vapor or sublimation pressure,[1]; 309.88 K,3.289 ± 0.7 kPa
same,vapor or sublimation pressure,[1]; 311.74 K,3.692 ± 0.7 kPa
same,viscosity,"[1]; 313.15 K, 101 kPa",2.261 ± 0.14 mPa·s
same,mass density,"[1]; 313.15 K, 101 kPa",786.27 ± 0.24 kg/m3
same,vapor or sublimation pressure,[1]; 313.42 K,4.095 ± 0.7 kPa
same,vapor or sublimation pressure,[1]; 314.93 K,4.489 ± 0.7 kPa
same,vapor or sublimation pressure,[1]; 316.71 K,4.991 ± 0.7 kPa
same,vapor or sublimation pressure,[1]; 316.78 K,4.995 ± 0.7 kPa
same,vapor or sublimation pressure,[1]; 322.51 K,6.986 ± 0.7 kPa
same,viscosity,"[1]; 323.15 K, 101 kPa",1.701 ± 0.14 mPa·s
same,mass density,"[1]; 323.15 K, 101 kPa",778.28 ± 0.24 kg/m3
same,vapor or sublimation pressure,[1]; 323.97 K,7.587 ± 0.7 kPa
same,vapor or sublimation pressure,[1]; 325.33 K,8.182 ± 0.7 kPa
same,vapor or sublimation pressure,[1]; 326.61 K,8.784 ± 0.7 kPa
same,vapor or sublimation pressure,[1]; 327.82 K,9.384 ± 0.7 kPa
same,vapor or sublimation pressure,[1]; 329.01 K,9.99 ± 0.7 kPa
same,vapor or sublimation pressure,[1]; 329.02 K,9.989 ± 0.7 kPa
same,viscosity,"[1]; 333.15 K, 101 kPa",1.29 ± 0.14 mPa·s
same,mass density,"[1]; 333.15 K, 101 kPa",769.74 ± 0.24 kg/m3
same,vapor or sublimation pressure,[1]; 336.03 K,14.47 ± 0.7 kPa
same,vapor or sublimation pressure,[1]; 337.45 K,15.56 ± 0.7 kPa
same,vapor or sublimation pressure,[1]; 338.83 K,16.66 ± 0.7 kPa
same,vapor or sublimation pressure,[1]; 340.11 K,17.76 ± 0.7 kPa
same,vapor or sublimation pressure,[1]; 342.37 K,19.95 ± 0.7 kPa
same,vapor or sublimation pressure,[1]; 342.51 K,19.99 ± 0.7 kPa
same,vapor or sublimation pressure,[1]; 342.52 K,19.99 ± 0.7 kPa
same,mass density,"[1]; 343.15 K, 101 kPa",760.83 ± 0.24 kg/m3
same,mass density,"[1]; 353.15 K, 101 kPa",751.67 ± 0.3 kg/m3
same,vapor or sublimation pressure,[1]; 357.51 K,39.95 ± 0.71 kPa
same,vapor or sublimation pressure,[1]; 357.52 K,39.94 ± 0.7 kPa
same,vapor or sublimation pressure,[1]; 362.71 K,49.87 ± 0.71 kPa
same,mass density,"[1]; 363.15 K, 101 kPa",741.9 ± 0.3 kg/m3
same,vapor or sublimation pressure,[1]; 367.13 K,59.85 ± 0.71 kPa
same,vapor or sublimation pressure,[1]; 370.94 K,69.83 ± 0.72 kPa
same,vapor or sublimation pressure,[1]; 374.36 K,79.82 ± 0.72 kPa
same,vapor or sublimation pressure,[1]; 377.44 K,89.76 ± 0.73 kPa
same,vapor or sublimation pressure,[1]; 378.97 K,94.99 ± 0.73 kPa
CC(C)CO [2-methyl-1-propanol] + CCC(C)(C)O,viscosity,[2]; 293.15 K,4.315 ± 0.2 mPa·s
same,mass density,[2]; 293.15 K,801.75 ± 0.61 kg/m3
same,viscosity,[2]; 303.15 K,3.089 ± 0.2 mPa·s
same,mass density,[2]; 303.15 K,794.16 ± 0.61 kg/m3
same,viscosity,[2]; 313.15 K,2.261 ± 0.2 mPa·s
same,mass density,[2]; 313.15 K,786.27 ± 0.61 kg/m3
same,viscosity,[2]; 323.15 K,1.701 ± 0.2 mPa·s
same,mass density,[2]; 323.15 K,778.28 ± 0.62 kg/m3
same,viscosity,[2]; 333.15 K,1.29 ± 0.2 mPa·s
same,mass density,[2]; 333.15 K,769.74 ± 0.62 kg/m3
same,mass density,[2]; 343.15 K,760.83 ± 0.62 kg/m3
same,mass density,[2]; 353.15 K,751.67 ± 1 kg/m3
same,mass density,[2]; 363.15 K,741.9 ± 1 kg/m3
CCC(C)(C)O [2-methylbutan-2-ol],viscosity,"[1]; 293.15 K, 101 kPa",4.596 ± 0.15 mPa·s
same,mass density,"[1]; 293.15 K, 101 kPa",808.77 ± 0.24 kg/m3
same,vapor or sublimation pressure,[1]; 296.61 K,1.992 ± 0.7 kPa
same,vapor or sublimation pressure,[1]; 296.7 K,1.99 ± 0.7 kPa
same,vapor or sublimation pressure,[1]; 297.94 K,2.19 ± 0.7 kPa
same,mass density,"[1]; 298.15 K, 101.33 kPa",804.28 ± 0.62 kg/m3
same,vapor or sublimation pressure,[1]; 299.29 K,2.388 ± 0.7 kPa
same,vapor or sublimation pressure,[1]; 300.33 K,2.589 ± 0.7 kPa
same,vapor or sublimation pressure,[1]; 301.46 K,2.791 ± 0.7 kPa
same,vapor or sublimation pressure,[1]; 302.54 K,2.999 ± 0.7 kPa
same,viscosity,"[1]; 303.15 K, 101 kPa",2.983 ± 0.14 mPa·s
same,mass density,"[1]; 303.15 K, 101 kPa",799.74 ± 0.24 kg/m3
same,vapor or sublimation pressure,[1]; 310.7 K,4.984 ± 0.7 kPa
same,vapor or sublimation pressure,[1]; 311.35 K,5.181 ± 0.7 kPa
same,vapor or sublimation pressure,[1]; 311.98 K,5.383 ± 0.7 kPa
same,vapor or sublimation pressure,[1]; 312.29 K,5.49 ± 0.7 kPa
same,viscosity,"[1]; 313.15 K, 101 kPa",2.078 ± 0.14 mPa·s
same,mass density,"[1]; 313.15 K, 101 kPa",790.35 ± 0.24 kg/m3
same,vapor or sublimation pressure,[1]; 313.76 K,5.991 ± 0.7 kPa
same,vapor or sublimation pressure,[1]; 315.13 K,6.487 ± 0.7 kPa
same,vapor or sublimation pressure,[1]; 316.4 K,6.987 ± 0.7 kPa
same,vapor or sublimation pressure,[1]; 317.37 K,7.387 ± 0.7 kPa
same,vapor or sublimation pressure,[1]; 322.63 K,9.978 ± 0.7 kPa
same,vapor or sublimation pressure,[1]; 322.92 K,10 ± 0.7 kPa
same,viscosity,"[1]; 323.15 K, 101 kPa",1.494 ± 0.14 mPa·s
same,mass density,"[1]; 323.15 K, 101 kPa",780.66 ± 0.24 kg/m3
same,vapor or sublimation pressure,[1]; 323.15 K,10.18 ± 0.7 kPa
same,vapor or sublimation pressure,[1]; 323.49 K,10.38 ± 0.7 kPa
same,vapor or sublimation pressure,[1]; 323.84 K,10.58 ± 0.7 kPa
same,vapor or sublimation pressure,[1]; 324.14 K,10.78 ± 0.7 kPa
same,vapor or sublimation pressure,[1]; 324.51 K,10.97 ± 0.7 kPa
same,vapor or sublimation pressure,[1]; 325.37 K,11.57 ± 0.7 kPa
same,vapor or sublimation pressure,[1]; 326.73 K,12.38 ± 0.7 kPa
same,vapor or sublimation pressure,[1]; 327.62 K,12.97 ± 0.7 kPa
same,vapor or sublimation pressure,[1]; 327.81 K,13.17 ± 0.7 kPa
same,vapor or sublimation pressure,[1]; 329.05 K,13.97 ± 0.7 kPa
same,vapor or sublimation pressure,[1]; 330.38 K,14.96 ± 0.7 kPa
same,viscosity,"[1]; 333.15 K, 101 kPa",1.093 ± 0.14 mPa·s
same,mass density,"[1]; 333.15 K, 101 kPa",770.4 ± 0.24 kg/m3
same,vapor or sublimation pressure,[1]; 336.11 K,19.94 ± 0.7 kPa
same,vapor or sublimation pressure,[1]; 336.26 K,19.99 ± 0.7 kPa
same,vapor or sublimation pressure,[1]; 337.58 K,21.45 ± 0.7 kPa
same,vapor or sublimation pressure,[1]; 338.97 K,22.94 ± 0.7 kPa
same,vapor or sublimation pressure,[1]; 340.32 K,24.44 ± 0.71 kPa
same,vapor or sublimation pressure,[1]; 341.57 K,25.93 ± 0.71 kPa
same,vapor or sublimation pressure,[1]; 341.59 K,25.92 ± 0.71 kPa
same,vapor or sublimation pressure,[1]; 342.39 K,26.94 ± 0.71 kPa
same,mass density,"[1]; 343.15 K, 101 kPa",759.8 ± 0.25 kg/m3
same,vapor or sublimation pressure,[1]; 348.11 K,34.91 ± 0.71 kPa
same,vapor or sublimation pressure,[1]; 351.17 K,39.89 ± 0.7 kPa
same,vapor or sublimation pressure,[1]; 351.33 K,39.95 ± 0.7 kPa
same,mass density,"[1]; 353.15 K, 101 kPa",749.13 ± 0.3 kg/m3
same,vapor or sublimation pressure,[1]; 353.93 K,44.88 ± 0.72 kPa
same,vapor or sublimation pressure,[1]; 356.46 K,49.88 ± 0.72 kPa
same,vapor or sublimation pressure,[1]; 361.02 K,59.92 ± 0.73 kPa
same,mass density,"[1]; 363.15 K, 101 kPa",738.77 ± 0.3 kg/m3
same,vapor or sublimation pressure,[1]; 372.63 K,93.14 ± 0.75 kPa
same,vapor or sublimation pressure,[1]; 373.16 K,94.89 ± 0.75 kPa
same,vapor or sublimation pressure,[1]; 373.29 K,95.01 ± 0.77 kPa
same,vapor or sublimation pressure,[1]; 373.6 K,96.54 ± 0.77 kPa
same,vapor or sublimation pressure,[1]; 374.05 K,98.01 ± 0.76 kPa
same,vapor or sublimation pressure,[1]; 374.53 K,99.81 ± 0.75 kPa
same,vapor or sublimation pressure,[1]; 374.93 K,101.04 ± 1.3 kPa
same,vapor or sublimation pressure,[1]; 376.03 K,104.99 ± 1.3 kPa
same,vapor or sublimation pressure,[1]; 377.33 K,109.95 ± 1.3 kPa
same,vapor or sublimation pressure,[1]; 378.63 K,115.02 ± 1.3 kPa
same,vapor or sublimation pressure,[1]; 379.87 K,120.01 ± 1.3 kPa
same,vapor or sublimation pressure,[1]; 381.05 K,124.96 ± 1.3 kPa

# Source: the NIST ThermoML archive (doi:10.1021/acs.jced.5b00537)
